Test results: article PMC12147714 (FEMS Microbiology Letters, 2025)
Read-outs that look alike come from different tables or passages of the source.

Tests used:
[1] = tested on: PAO1 TnoprD producing IMP-1; experiment: MIC and checkerboard by broth microdilution, recombinant strain; type: cell-based, Pseudomonas aeruginosa; settings: IMP-1 TnoprD; antibiotic alone
Procedure: (§1) The fractional inhibitory concentration index (FICI) was calculated and interpreted as follows: the MIC of drug A in combination/the MIC of drug A alone + the MIC of drug B in combination/the MIC drug B alone. FICI ≤ 0.5 = synergy; 0.5 < FICI ≤ 1 = additive; FICI 1 < FICI < 2 = indifference, and FICI ≥ 2 = antagonism. All susceptibility testing/checkerboard assays were performed in triplicate.

[2] = tested on: PAO1 producing IMP-10; experiment: as above; type: cell-based, Pseudomonas aeruginosa; settings: antibiotic alone
Procedure: as §1

[3] = tested on: PAO1 producing NDM-1; experiment: as above; type: cell-based, Pseudomonas aeruginosa; settings: antibiotic alone
Procedure: as §1

[4] = tested on: PAO1 TnoprD producing IMP-10; experiment: as above; type: cell-based, Pseudomonas aeruginosa; settings: IMP-10 TnoprD; antibiotic alone
Text: (§2) Pseudomonas aeruginosa isolate, PAO1, was used alongside its isogenic counterpart, PAO1 TnoprD, which lacks a functional OprD porin (Held et al. [2012]). β-lactamases, blaIMP-1, blaIMP-10, blaIMP-13, blaNDM-1, blaSPM-1, blaVIM-1, blaVIM-2, and blaKPC-2, had previously been cloned into the pUCP24 shuttle vector (Bouvier et al. [2025]), and were transformed by electroporation into both PAO1 and PAO1 TnoprD.
as §1, with “. MICs of DMSA, CAZ, FEP and checkerboards for the combinations, CAZ/DMSA and FEP/DMSA, were performed for all clinical isolates. All susceptibility testing results were interpreted according to CLSI guidelines (CLSI [2023]). The” for “The”

[5] = tested on: PAO1 TnoprD producing IMP-13; experiment: as above; type: cell-based, Pseudomonas aeruginosa; settings: IMP-13 TnoprD; antibiotic alone
Text: as §2
as §1, with “. MICs of DMSA, CAZ, FEP and checkerboards for the combinations, CAZ/DMSA and FEP/DMSA, were performed for all clinical isolates. All susceptibility testing results were interpreted according to CLSI guidelines (CLSI [2023]). The” for “The”

[6] = tested on: PAO1 TnoprD producing SPM-1; experiment: as above; type: cell-based, Pseudomonas aeruginosa; settings: SPM-1 TnoprD; antibiotic alone
Text: as §2
as §1, with “. MICs of DMSA, CAZ, FEP and checkerboards for the combinations, CAZ/DMSA and FEP/DMSA, were performed for all clinical isolates. All susceptibility testing results were interpreted according to CLSI guidelines (CLSI [2023]). The” for “The”

[7] = tested on: PAO1 TnoprD producing VIM-2; experiment: as above; type: cell-based, Pseudomonas aeruginosa; settings: VIM-2 TnoprD; antibiotic alone
Text: as §2
as §1, with “. MICs of DMSA, CAZ, FEP and checkerboards for the combinations, CAZ/DMSA and FEP/DMSA, were performed for all clinical isolates. All susceptibility testing results were interpreted according to CLSI guidelines (CLSI [2023]). The” for “The”

[8] = tested on: PAO1 producing IMP-13; experiment: as above; type: cell-based, Pseudomonas aeruginosa; settings: antibiotic alone
Text: as §2
as §1, with “. MICs of DMSA, CAZ, FEP and checkerboards for the combinations, CAZ/DMSA and FEP/DMSA, were performed for all clinical isolates. All susceptibility testing results were interpreted according to CLSI guidelines (CLSI [2023]). The” for “The”

[9] = tested on: PAO1 producing IMP-1; experiment: as above; type: cell-based, Pseudomonas aeruginosa; settings: antibiotic alone
Text: as §2
as §1, with “. MICs of DMSA, CAZ, FEP and checkerboards for the combinations, CAZ/DMSA and FEP/DMSA, were performed for all clinical isolates. All susceptibility testing results were interpreted according to CLSI guidelines (CLSI [2023]). The” for “The”

[10] = tested on: PAO1 producing SPM-1; experiment: as above; type: cell-based, Pseudomonas aeruginosa; settings: antibiotic alone
Text: as §2
as §1, with “. MICs of DMSA, CAZ, FEP and checkerboards for the combinations, CAZ/DMSA and FEP/DMSA, were performed for all clinical isolates. All susceptibility testing results were interpreted according to CLSI guidelines (CLSI [2023]). The” for “The”

[11] = tested on: PAO1 producing VIM-1; experiment: as above; type: cell-based, Pseudomonas aeruginosa; settings: antibiotic alone
Text: as §2
as §1, with “. MICs of DMSA, CAZ, FEP and checkerboards for the combinations, CAZ/DMSA and FEP/DMSA, were performed for all clinical isolates. All susceptibility testing results were interpreted according to CLSI guidelines (CLSI [2023]). The” for “The”

[12] = tested on: PAO1 producing VIM-2; experiment: as above; type: cell-based, Pseudomonas aeruginosa; settings: antibiotic alone
Text: as §2
as §1, with “. MICs of DMSA, CAZ, FEP and checkerboards for the combinations, CAZ/DMSA and FEP/DMSA, were performed for all clinical isolates. All susceptibility testing results were interpreted according to CLSI guidelines (CLSI [2023]). The” for “The”

[13] = tested on: PAO1 TnoprD producing KPC-2; type: cell-based, Pseudomonas aeruginosa; settings: KPC-2 TnoprD; antibiotic alone
Procedure: as §1

[14] = tested on: PAO1 TnoprD producing NDM-1; experiment: MIC and checkerboard by broth microdilution, recombinant strain; type: cell-based, Pseudomonas aeruginosa; settings: NDM-1 TnoprD; antibiotic alone
Procedure: as §1

[15] = tested on: PAO1 TnoprD producing VIM-1; experiment: as above; type: cell-based, Pseudomonas aeruginosa; settings: VIM-1 TnoprD; antibiotic alone
Procedure: as §1

[16] = tested on: PAO1 producing KPC-2; type: cell-based, Pseudomonas aeruginosa; settings: antibiotic alone
Procedure: as §1

[17] = tested on: PAO1 and PAO1 TnoprD producing one of eight different carbapenemases; experiment: MIC and checkerboard, isogenic strains as a group; type: cell-based, Pseudomonas aeruginosa
Text: as §2
as §1, with “. MICs of DMSA, CAZ, FEP and checkerboards for the combinations, CAZ/DMSA and FEP/DMSA, were performed for all clinical isolates. All susceptibility testing results were interpreted according to CLSI guidelines (CLSI [2023]). The” for “The”

[18] = target: T1, IMP-10 (Serratia marcescens, UniProt P52699, V49F); settings: ref Le Terrier et al. 2024; cited from earlier work
[19] = target: IMP-1 (Serratia marcescens, UniProt P52699); experiment: IC50, inhibition of cephalothin hydrolysis by crude extract
[20] = target: T1, IMP-10; experiment: as above
[21] = target: IMP-13 (Pseudomonas aeruginosa, UniProt Q7WYA8); experiment: as above
[22] = target: SPM-1 (Pseudomonas aeruginosa, UniProt Q8G9Q0); experiment: as above
[23] = target: VIM-1 (Pseudomonas aeruginosa, UniProt A0A0F7KYQ8); experiment: as above
[24] = target: VIM-2 (Escherichia coli, UniProt Q5U7L7); experiment: as above
[25] = tested on: IMP-producers; design: method as in Hamrick et al. 2020, Le Terrier et al. 2024; settings: ref Hamrick et al. 2020, Le Terrier et al. 2024; cited from earlier work

T1 sequence (P52699 19-246 V49F): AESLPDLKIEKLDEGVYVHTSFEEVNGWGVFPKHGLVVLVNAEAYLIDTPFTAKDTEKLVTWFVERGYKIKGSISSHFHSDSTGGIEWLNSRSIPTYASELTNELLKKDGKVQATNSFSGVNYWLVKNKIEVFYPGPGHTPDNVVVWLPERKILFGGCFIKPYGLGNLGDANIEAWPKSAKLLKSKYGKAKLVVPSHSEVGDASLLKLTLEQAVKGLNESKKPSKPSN
IMP-13, sequence (Q7WYA8 21-246): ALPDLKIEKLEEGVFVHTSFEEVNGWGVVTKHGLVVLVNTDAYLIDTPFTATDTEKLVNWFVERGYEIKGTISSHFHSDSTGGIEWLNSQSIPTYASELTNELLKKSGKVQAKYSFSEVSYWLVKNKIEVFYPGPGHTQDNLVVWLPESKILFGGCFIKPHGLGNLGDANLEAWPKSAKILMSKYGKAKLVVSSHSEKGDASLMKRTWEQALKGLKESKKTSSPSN
IMP-1, sequence (P52699 19-246 limits assumed): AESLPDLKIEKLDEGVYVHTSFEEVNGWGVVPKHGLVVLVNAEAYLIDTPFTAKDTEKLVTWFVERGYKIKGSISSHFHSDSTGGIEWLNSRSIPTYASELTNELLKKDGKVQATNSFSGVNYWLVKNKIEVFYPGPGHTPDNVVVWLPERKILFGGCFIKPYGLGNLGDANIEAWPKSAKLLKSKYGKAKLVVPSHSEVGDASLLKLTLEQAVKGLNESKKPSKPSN
SPM-1, sequence (Q8G9Q0 entry or part of it): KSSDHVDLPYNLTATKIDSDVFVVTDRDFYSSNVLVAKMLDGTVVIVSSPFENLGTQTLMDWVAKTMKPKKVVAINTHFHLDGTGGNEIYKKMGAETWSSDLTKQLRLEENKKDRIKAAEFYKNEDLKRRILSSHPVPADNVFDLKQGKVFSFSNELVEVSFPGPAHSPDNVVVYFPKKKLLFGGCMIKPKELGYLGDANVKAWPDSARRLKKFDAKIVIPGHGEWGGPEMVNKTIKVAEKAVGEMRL

| SMILES | MIC [1] | MIC [2] | MIC [3] | MIC [4] | MIC [5] | MIC [6] | MIC [7] | MIC [8] | MIC [9] | MIC [10] | MIC [11] | MIC [12] | MIC [13] | MIC [14] | MIC [16] | other results |
| --- | --- | --- | --- | --- | --- | --- | --- | --- | --- | --- | --- | --- | --- | --- | --- | --- |
| C[C@@H](O)[C@H]1C(=O)N2C(C(=O)O)=C(SCCN=CN)C[C@H]12 [IPM, imipenem] | 64 µg/mL | 8 µg/mL | 32 µg/mL | 64 µg/mL | 8 µg/mL | 16 µg/mL | 32 µg/mL | 1 µg/mL | 16 µg/mL | 2 µg/mL | 64 µg/mL | 4 µg/mL | 512 µg/mL |  |  |  |
| CO/N=C(\C(=O)N[C@@H]1C(=O)N2C(C(=O)[O-])=C(C[N+]3(C)CCCC3)CS[C@H]12)c1csc(N)n1 [FEP, cefepime] | 512 µg/mL | 256 µg/mL | 256 µg/mL | 256 µg/mL | 16 µg/mL | 64 µg/mL | 2 µg/mL | 16 µg/mL | 512 µg/mL | 64 µg/mL | 512 µg/mL | 2 µg/mL | 512 µg/mL | 256 µg/mL | 512 µg/mL | MIC [15]: 512 µg/mL; interaction with DMSA as indicated by the FICIs ([17]; strains producing IMP-1, IMP-10 or IMP-13, with and without functional OprD, all three DMSA concentrations (100, 200, 300 mg/l)): synergy (FICI ≤ 0.5 = synergy) |
| O=C(O)c1c(F)ccc2c1OB(O)[C@@H]1C[C@H]21 [XER, xeruborbactam] |  |  |  |  |  |  |  |  |  |  |  |  |  |  |  | activity against IMP-10 [18]: limited activity; IC50 [19]: 2.7 µM; IC50 [20]: 73 µM; IC50 [21]: 3.6 µM; IC50 [22]: > 1000 µM; IC50 [23]: 0.5 µM; IC50 [24]: 0.1 µM |
| C[C@@H](O)[C@H]1C(=O)N2C(C(=O)O)=C(S[C@@H]3CN[C@H](C(=O)N(C)C)C3)[C@H](C)[C@H]12 [MEM, meropenem] |  |  |  | 256 µg/mL | 8 µg/mL | 64 µg/mL | 8 µg/mL | 4 µg/mL | 64 µg/mL | 32 µg/mL | 64 µg/mL | 4 µg/mL | 512 µg/mL | 256 µg/mL | 256 µg/mL | interaction with DMSA as indicated by the FICIs ([17]; SPM-1 strains, DMSA 200 and 300 mg/l): synergy (FICI ≤ 0.5 = synergy); interaction with DMSA as indicated by the FICIs ([17]; strains producing IMP-1, IMP-10 or IMP-13, with and without functional OprD, DMSA 200 and 300 mg/l): synergy (FICI ≤ 0.5 = synergy) |
| NCCN[C@H]1CC[C@H](CC(=O)N[C@H]2Cc3cccc(C(=O)O)c3OB2O)CC1 [TAN, taniborbactam] |  |  |  |  |  |  |  |  |  |  |  |  |  |  |  | activity against IMP-producers [25]: poor activity; IC50 ([19]; IMP-1, 100 μM cephalothin, pH 7.0): > 1000 µM; IC50 ([20]; IMP-10, 100 μM cephalothin, pH 7.0): > 1000 µM; IC50 ([21]; IMP-13, 100 μM cephalothin, pH 7.0): > 1000 µM; IC50 ([22]; SPM-1, 100 μM cephalothin, pH 7.0): 2.7 µM; IC50 ([23]; VIM-1, 100 μM cephalothin, pH 7.0): 0.8 µM; IC50 ([24]; VIM-2, 100 μM cephalothin, pH 7.0): 0.5 µM |
